Laboratory results from the supplement of paper PMC10307832.

Compound: O=C(/C=C/c1ccccc1)NC(NC(=S)Nc1cccc2cccnc12)C(Cl)(Cl)Cl [Salubrinal] + Cc1cc(Nc2cc(N3CCN(C)CC3)nc(Sc3ccc(NC(=O)C4CC4)cc3)n2)n[nH]1 [Tozasertib] (partner 0.1 µM)
Experiment: relative viability (nuclei count vs DMSO), 5 days (fraction); higher = more cells survive
Settings: first compound 8 µM
How it was run: (§1)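 Cells from lung cancer lines were seeded into 1536-well plates and, one day later, dosed by pin tool. Treatments were either a single drug or a fixed dose of an anchor drug with five library-drug doses (not always all listed) in √10 steps. After 5 days, nuclei were stained in a one-step fixation (final 0.05% Triton X-100, 1% formaldehyde, 1 ug/ml Hoechst) and counted on 4× images, and relative viability is the treated-to-vehicle nuclei ratio, as the median of duplicate plates.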

LC-2-ad showed a relative viability of 0.354.

Compound: Cc1ccc2nc(NCCN)c3ncc(C)n3c2c1 + CCNC(=O)c1noc(-c2cc(C(C)C)c(O)cc2O)c1-c1ccc(CN2CCOCC2)cc1 [Luminespib] (partner 0.01 µM)
Experiment: as above
Settings: first compound 0.04 µM
How it was run: as §1

Compared with BEN, HARA is higher in relative viability: 0.337 for the first, 0.822 for the second.

Going from SW 900 to NCI-H322M, the relative viability rises from 0.168 to 0.908.

Going from LCLC-97TM1 to NCI-H2009, the relative viability rises from 0.761 to 1.03.

Compared with A-427, NCI-H441 is lower in relative viability: 1.1 for the first, 0.285 for the second.

Going from NCI-H661 to NCI-H1734, the relative viability falls from 0.932 to 0.217.

Going from NCI-H460 to NCI-H2347, the relative viability rises from 0.0414 to 1.14.

Going from SK-LU-1 to NCI-H1395, the relative viability rises from 0.225 to 0.828.

First: 201T
Second: NCI-H1915
The relative viability of the first is higher: 1.1 for the first, 0.721 for the second.

Going from HCC-827 to LXF-289, the relative viability falls from 0.741 to 0.633.

Going from NCI-H23 to NCI-H647, the relative viability falls from 0.207 to 0.163.

First: CAL-12T
Second: NCI-H1651
The relative viability of the first is lower: 0.642 for the first, 0.801 for the second.

Going from EPLC-272H to NCI-H2228, the relative viability falls from 0.272 to 0.147.

Compared with NCI-H1355, NCI-H3122 is lower in relative viability: 0.844 for the first, 0.101 for the second.

First: NCI-H1437
Second: NCI-H1755
The relative viability of the first is higher: 1.13 for the first, 0.42 for the second.

Compared with NCI-H2023, HCC-15 is lower in relative viability: 0.782 for the first, 0.463 for the second.

Compared with PC-14, EKVX is higher in relative viability: 0.135 for the first, 0.955 for the second.

LC-2-ad gave a relative viability of 0.891.

Same assay, conditions: first compound 0.1265 µM

First: BEN
Second: HARA
The relative viability of the first is lower: 0.295 for the first, 0.753 for the second.

Compared with SW 900, NCI-H322M is higher in relative viability: 0.161 for the first, 0.845 for the second.

Compared with LCLC-97TM1, NCI-H2009 is higher in relative viability: 0.713 for the first, 1 for the second.

First: A-427
Second: NCI-H441
The relative viability of the first is higher: 0.784 for the first, 0.482 for the second.

Compared with NCI-H661, NCI-H1734 is lower in relative viability: 0.94 for the first, 0.251 for the second.

First: NCI-H460
Second: NCI-H2347
The relative viability of the first is lower: 0.0267 for the first, 1.3 for the second.

Compared with SK-LU-1, NCI-H1395 is higher in relative viability: 0.248 for the first, 0.701 for the second.

Compared with 201T, NCI-H1915 is lower in relative viability: 1.05 for the first, 0.783 for the second.

First: HCC-827
Second: LXF-289
The relative viability of the first is lower: 0.589 for the first, 0.816 for the second.

Going from NCI-H23 to NCI-H647, the relative viability falls from 0.227 to 0.187.

Compared with CAL-12T, NCI-H1651 is higher in relative viability: 0.522 for the first, 0.805 for the second.

Going from EPLC-272H to NCI-H2228, the relative viability falls from 0.253 to 0.149.

Compared with NCI-H1355, NCI-H3122 is lower in relative viability: 0.73 for the first, 0.11 for the second.

First: NCI-H1437
Second: NCI-H1755
The relative viability of the first is higher: 1.09 for the first, 0.359 for the second.

First: NCI-H2023
Second: HCC-15
The relative viability of the first is higher: 0.68 for the first, 0.239 for the second.

Going from PC-14 to EKVX, the relative viability rises from 0.114 to 0.842.

LC-2-ad showed a relative viability of 0.947.

Same assay, conditions: first compound 0.4 µM

Going from BEN to HARA, the relative viability rises from 0.425 to 0.622.

Compared with NCI-H322M, LCLC-97TM1 is lower in relative viability: 0.961 for the first, 0.752 for the second.

Going from NCI-H2009 to A-427, the relative viability falls from 1.05 to 0.993.

Compared with NCI-H441, NCI-H661 is higher in relative viability: 0.312 for the first, 0.929 for the second.

Going from NCI-H1734 to NCI-H460, the relative viability falls from 0.197 to 0.0351.

First: NCI-H2347
Second: SK-LU-1
The relative viability of the first is higher: 0.362 for the first, 0.191 for the second.

Compared with NCI-H1395, 201T is higher in relative viability: 0.664 for the first, 1.06 for the second.

Compared with HCC-827, LXF-289 is lower in relative viability: 0.689 for the first, 0.653 for the second.

First: NCI-H647
Second: CAL-12T
The relative viability of the first is lower: 0.155 for the first, 0.715 for the second.

First: NCI-H1651
Second: EPLC-272H
The relative viability of the first is higher: 0.997 for the first, 0.196 for the second.

Going from NCI-H2228 to NCI-H1355, the relative viability rises from 0.181 to 0.722.

First: NCI-H3122
Second: NCI-H1437
The relative viability of the first is lower: 0.0776 for the first, 1.14 for the second.

Going from NCI-H1755 to NCI-H2023, the relative viability rises from 0.339 to 0.764.

First: HCC-15
Second: PC-14
The relative viability of the first is higher: 0.258 for the first, 0.179 for the second.

Compared with EKVX, LC-2-ad is higher in relative viability: 0.886 for the first, 1.13 for the second.

Same assay, conditions: first compound 1.265 µM

First: BEN
Second: HARA
The relative viability of the first is lower: 0.179 for the first, 0.681 for the second.

Going from SW 900 to NCI-H322M, the relative viability rises from 0.149 to 0.858.

Compared with LCLC-97TM1, NCI-H2009 is higher in relative viability: 0.699 for the first, 1.01 for the second.

Compared with A-427, NCI-H441 is lower in relative viability: 1.02 for the first, 0.465 for the second.

Compared with NCI-H661, NCI-H1734 is lower in relative viability: 0.98 for the first, 0.184 for the second.

Compared with NCI-H460, NCI-H2347 is higher in relative viability: 0.0331 for the first, 0.248 for the second.

Compared with SK-LU-1, NCI-H1395 is higher in relative viability: 0.199 for the first, 0.534 for the second.

Going from 201T to NCI-H1915, the relative viability falls from 1.12 to 0.598.

Going from HCC-827 to LXF-289, the relative viability rises from 0.58 to 0.706.

Going from NCI-H23 to NCI-H647, the relative viability falls from 0.201 to 0.136.

Compared with CAL-12T, NCI-H1651 is higher in relative viability: 0.534 for the first, 0.836 for the second.

Going from EPLC-272H to NCI-H2228, the relative viability falls from 0.299 to 0.145.

Compared with NCI-H1355, NCI-H3122 is lower in relative viability: 0.691 for the first, 0.0857 for the second.

Going from NCI-H1437 to NCI-H1755, the relative viability falls from 1.08 to 0.288.

First: NCI-H2023
Second: HCC-15
The relative viability of the first is higher: 0.782 for the first, 0.373 for the second.

First: PC-14
Second: EKVX
The relative viability of the first is lower: 0.151 for the first, 0.843 for the second.

Work on LC-2-ad yielded a relative viability of 1.04.

Same assay, conditions: first compound 4 µM

Compared with BEN, HARA is lower in relative viability: 0.688 for the first, 0.681 for the second.

Compared with SW 900, NCI-H322M is higher in relative viability: 0.167 for the first, 0.734 for the second.

Compared with LCLC-97TM1, NCI-H2009 is higher in relative viability: 0.678 for the first, 0.792 for the second.

First: A-427
Second: NCI-H441
The relative viability of the first is higher: 0.846 for the first, 0.322 for the second.

Going from NCI-H661 to NCI-H1734, the relative viability falls from 0.8 to 0.176.

Going from NCI-H460 to NCI-H2347, the relative viability rises from 0.0182 to 0.356.

Compared with SK-LU-1, NCI-H1395 is higher in relative viability: 0.212 for the first, 0.761 for the second.

Going from 201T to NCI-H1915, the relative viability falls from 1.07 to 0.636.

Going from HCC-827 to LXF-289, the relative viability falls from 0.8 to 0.618.

Going from NCI-H23 to NCI-H647, the relative viability falls from 0.217 to 0.188.

First: CAL-12T
Second: NCI-H1651
The relative viability of the first is lower: 0.214 for the first, 0.839 for the second.

Going from EPLC-272H to NCI-H2228, the relative viability falls from 0.159 to 0.149.

Compared with NCI-H1355, NCI-H3122 is lower in relative viability: 0.732 for the first, 0.0976 for the second.

First: NCI-H1437
Second: NCI-H1755
The relative viability of the first is higher: 1.06 for the first, 0.48 for the second.

Compared with NCI-H2023, HCC-15 is lower in relative viability: 0.264 for the first, 0.16 for the second.

Compared with PC-14, EKVX is higher in relative viability: 0.18 for the first, 0.93 for the second.

With LC-2-ad the relative viability was 0.798.
